Reference: BindingDB's records for PubMed 35114538 (Institute For Pharmaceutical Research Saarland (Hips), 2022)
Where a SMILES comes first, the peptide text is derived from it. Bridges are numbered along the chain shown (N, C = ends). Triazole bridges read from a SMILES are 1,4-linked. [ ]: non-standard residue; d: D form. Ala(indol-2-yl) = N[C@@H](Cc1cc2ccccc2[nH]1)C(=O)O; Dap(N3) = [N-]=[N+]=NC[C@H](N)C(=O)O; Aha = [N-]=[N+]=NCC[C@H](N)C(=O)O; Pra = C#CC[C@H](N)C(=O)O

The compounds below were run against Carbon storage regulator homolog RsmA (Pseudomonas aeruginosa) (assay: Binding affinity towards Pseudomonas aeruginosa RsmA measured by fluorescence polarization assay).
CC(=O)N[C@H](C(=O)N[C@H]1Cc2cnnn2CC[C@@H](C(=O)N[C@@H](Cc2c[nH]c3ccccc23)C(N)=O)NC(=O)[C@H](CC(C)C)NC(=O)[C@H](CCC(=O)O)NC(=O)[C@H](CO)NC1=O)C(C)C was tested, and the IC50 was 44.4 µM. CC(=O)N[C@H](C(=O)N[C@H]1CCn2nncc2C[C@@H](C(=O)N[C@@H](Cc2c[nH]c3ccccc23)C(N)=O)NC(=O)[C@H](CC(C)C)NC(=O)[C@H](CCC(=O)O)NC(=O)[C@H](CO)NC1=O)C(C)C showed an IC50 of 37 µM. CC(=O)N[C@H](C(=O)N[C@H]1CSSC[C@@H](C(=O)N[C@@H](Cc2cc3ccccc3[nH]2)C(N)=O)NC(=O)[C@H](CC(C)C)NC(=O)[C@H](CCC(=O)O)NC(=O)[C@H](CO)NC1=O)C(C)C (Ac-VCSELC[Ala(indol-2-yl)]-NH2; disulfide 2-6) showed an IC50 of 272 µM. CC(=O)N[C@H](C(=O)N[C@H]1Cn2cc(nn2)C[C@@H](C(=O)N[C@@H](Cc2c[nH]c3ccccc23)C(N)=O)NC(=O)[C@H](CC(C)C)NC(=O)[C@H](CCC(=O)O)NC(=O)[C@H](CO)NC1=O)C(C)C (Ac-V[Dap(N3)]SEL[Pra]W-NH2; triazole 2-6) was tested, and the IC50 was 22.8 µM. In the case of CC(=O)N[C@H](C(=O)N[C@H]1Cc2cn(nn2)CC[C@@H](C(=O)N[C@@H](Cc2c[nH]c3ccccc23)C(N)=O)NC(=O)[C@H](CC(C)C)NC(=O)[C@H](CCC(=O)O)NC(=O)[C@H](CO)NC1=O)C(C)C (Ac-V[Pra]SEL[Aha]W-NH2; triazole 2-6), the IC50 is reported as 30.2 µM. For CC(=O)N[C@H](C(=O)N[C@H]1Cc2cn(nn2)C[C@@H](C(=O)N[C@@H](Cc2c[nH]c3ccccc23)C(N)=O)NC(=O)[C@H](CC(C)C)NC(=O)[C@H](CCC(=O)O)NC(=O)[C@H](CO)NC1=O)C(C)C (Ac-V[Pra]SEL[Dap(N3)]W-NH2; triazole 2-6), the IC50 was 20 µM.
